Results published in US20180057505A1, “BICYCLIC HETEROARYL COMPOUNDS USEFUL AS INHIBITORS OF THE PAR-2 SIGNALING PATHWAY” (VERTEX PHARMACEUTICALS INCORPORATED, priority 2015, published 2018).

Tests used:
[1] = In vivo rat pharmacokinetics experiments; conditions: for F: oral gavage, dose 1 to 600 mg/kg
Protocol: Example 99: Protocol for Testing PAR2 Compounds In Vivo Rat Pharmacokinetics Experiments
Compounds delivered by intravenous route were formulated using a solution formulation consisting of 5% N-methylpyrrolidone 10% Vitamin E-TPGS and 85% water (v/v/) or a solution formulation consisting of 25% N-methylpyrrolidone 35% polyethylene glycol 400 and 40% water (v/v/). Intravenous formulations were administered by a bolus injection (over approximately 10 seconds) using a hypodermic needle attaches to a syringe (tail vein). The dose volume was varied from 1 to 2 mL/kg and the dose was varied from 0.5 to 1 mg/kg. Compounds delivered orally were formulated as a solution formulation consisting of 5% N-methylpyrrolidone 10% Vitamin E-TPGS and 85% water (v/v/) or as fine suspension using a cellulose derivative suspending agent with or without the addition of a wetting agent/surfactant. Milling of large particles was performed as needed to reduce particle size using focused electroacoustic milling, homogenization or low energy media milling. A spray-dried solid dispersion was prepared for key compounds using 1:1 combination with cellulose derivatives. Test compounds were administered orally by gavage using a gavage plastic needle attached to a syringe. The dose volume was varied from 5 to 10 mL/kg and the dose was varied from 1 to 600 mg/kg.
Rats were bled by venipuncture (jugular vein) and the samples were collected into tubes containing K3EDTA. The tubes were placed on wet ice until processed. The samples were centrifuged for approximately 10 minutes (at approximately 4° C.) within approximately 30 minutes of collection to prepare plasma or diluted in citrate buffer (1:3) and stored frozen (approximately −30° C.). Thawed plasma or whole blood samples were extracted by protein precipitation using an organic solvent followed by centrifugation. The supernatants were separated by high-performance liquid chromatography coupled to mass spectrometry detection. A calibration curve was prepared using reference standard compounds spiked into either blank plasma or whole blood matrices and extracted similarly to unknown samples. Pharmacokinetic parameters were calculated using non-compartmental analysis.

[2] = test system: carrageenan induced paw edema; experiment: Rat carrageenan-induced paw edema model; type: in vivo; conditions: given 0.5-3 hour before carrageenan
Protocol: Example 100: In Vivo Pharmacological Evaluation of PAR2 Pathway Inhibitors Subjects and Housing and Rat Carrageenan-Induced Paw Edema Model Male Sprague Dawley rats were housed in groups in a temperature controlled room and were acclimatized in the animal facility for at least three days prior to use. Experiments were performed during the light phase of the cycle. Animals have food and water ad libitum. Peripheral inflammation was induced by intra-plantar administration of 100 ul of a 1% w/volume (in saline) carrageenan solution under isoflurane anesthesia. The degree of swelling was assessed using the plethysmometer at 2-3-4-5-6 h after carrageenan injection. Test compound or vehicle (0.5% MC/0.1% SDS) was systemically administered at the indicated doses in a volume of 5 mL/kg either 0.5-3 hour before carrageenan challenge (Table 4).

[3] = molecular target: T1, PAR2 (HT-29 cells) (Homo sapiens, UniProt P55085); experiment: Ca FLIPR TETRA assay, ANTAGONIST mode, activator 3.1 U/mL trypsin; type: cell-based; conditions: HT-29 cells; activator 3.1 U/mL trypsin; Method A: maximal concentration of antagonist 0.1, 1 or 2 μM
T1 construct: host or cells: HT-29
T1 sequence (P55085 26-397): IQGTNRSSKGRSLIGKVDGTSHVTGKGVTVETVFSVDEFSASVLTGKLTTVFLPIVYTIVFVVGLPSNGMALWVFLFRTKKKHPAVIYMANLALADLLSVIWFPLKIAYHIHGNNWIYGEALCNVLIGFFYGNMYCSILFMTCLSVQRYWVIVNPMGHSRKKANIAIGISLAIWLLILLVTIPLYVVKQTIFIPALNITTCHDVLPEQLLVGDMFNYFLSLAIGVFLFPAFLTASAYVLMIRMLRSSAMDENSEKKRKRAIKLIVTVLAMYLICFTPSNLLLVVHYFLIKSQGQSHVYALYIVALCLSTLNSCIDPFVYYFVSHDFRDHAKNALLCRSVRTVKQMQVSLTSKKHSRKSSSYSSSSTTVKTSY
In short: (§1)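 Inhibition of agonist-evoked calcium signals was measured in human HT-29 colon cells cultured overnight in 1% FBS McCoy's medium. Test compounds preincubated 30 min at r.t.; activators at final concentrations as stated for each readout.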

[4] = test system: UTP-stimulated Ca2+ response in HT-29 cells; experiment: Ca FLIPR TETRA assay, ANTAGONIST mode, activator 0.6 μM UTP; type: cell-based; conditions: Homo sapiens; HT-29 cells, activator 0.6 μM UTP
In short: as §1

[5] = test system: Thrombin-stimulated Ca2+ response in HT-29 cells; experiment: Ca FLIPR TETRA assay, ANTAGONIST mode, activator 1 U/mL Thrombin; type: cell-based; conditions: Homo sapiens; HT-29 cells, activator 1 U/mL Thrombin
In short: as §1

[6] = molecular target: T1, PAR2 (HT-29 cells); experiment: Ca FLIPR TETRA assay, ANTAGONIST mode, activator 8 μM SLIGKV; type: cell-based; conditions: HT-29 cells; activator 8 μM SLIGKV; Method A: maximal concentration of antagonist 0.1, 1 or 2 μM
In short: as §1

[7] = intravenous bolus 0.5 to 1 mg/kg, non-compartmental analysis

Compound | Clp [1, 7] | T ½ ([1]; non-compartmental analysis) | F [1] | % inhibition ([2]; dose 20 mg/kg) | further results
CC1(C)CCC(c2cc(C(C)(C)C)c3oc(C(=O)N4CCN(C(=O)[C@H]5CC[C@@](C)(C(=O)O)CC5)CC4(C)C)cc3n2)CC1 [Compound I-316] | 13.9 mL/min/kg | 1.0 h | 49% | 38% | % inhibition ([2]; dose 5 mg/kg): 25%
CC(C)(C)c1cc(-c2ccc(Cl)c(F)c2)nc2cc(C(=O)N3CCN(c4ncc(-c5nnn[nH]5)cn4)CC3(C)C)oc12 [Compound I-331] | 8.9 mL/min/kg | 1.6 h | – | 27% | –
CC1(C)CCC(c2cc(C(C)(C)C)c3oc(C(=O)N4CCN(c5cccc(-c6nnn[nH]6)n5)CC4(C)C)cc3n2)CC1 [Compound I-345] | 7.6 mL/min/kg | 1.8 h | 52% | – | % inhibition ([2]; dose 15 mg/kg): 28%
CC1(C)CCC(c2cc(C(C)(C)C)c3oc(C(=O)N4CCN(c5ncc(-c6nnn[nH]6)cn5)CC4(C)C)cc3n2)CC1 [Compound I-346] | 16.5 mL/min/kg | 0.44 h | 4.7% | 60% | –
CC1(C)CCC(c2cc(C(C)(C)C)c3oc(C(=O)N4CCN(C(=O)CCC(C)(C)C(=O)O)CC4(C)C)cc3n2)CC1 [Compound I-354] | 32 mL/min/kg | 0.57 h | 52% | 60% | –
CC1(C)CCC(c2cc(C(C)(C)C)c3oc(C(=O)N4CCN(c5cccc(C(=O)O)n5)CC4(C)C)cc3n2)CC1 [Compound I-449] | 5.0 mL/min/kg | 5.3 h | 119% | – | % inhibition ([2]; dose 15 mg/kg): 22%
Cc1nc(N2CCN(C(=O)c3cc4nc(C5CCC(C)(C)CC5)cc(C(C)(C)C)c4o3)C(C)(C)C2)ncc1C(=O)O [Compound I-465] | 9.2 mL/min/kg | 5.1 h | 46% | 6% | –
CC1(C)CCC(c2cc(C(C)(C)C)c3oc(C(=O)N4CCN(C(=O)[C@H]5CC[C@@](C)(C(=O)O)CC5)CC4(C)C)cc3n2)CC1 [Example I-316] | – | – | – | – | IC50 [3]: 0.2 nM; IC50 [4]: > 2000 nM; IC50 [5]: > 2000 nM; IC50 [6]: 0.2 nM; % inhibition ([2]; dose 15 mg/kg): 50%; % inhibition ([2]; dose 40 mg/kg): 66%; % inhibition ([2]; dose 100 mg/kg): 81%; % inhibition ([2]; dose 250 mg/kg): 79%
CC1(C)CCC(c2cc(C(C)(C)C)c3oc(C(=O)N4CCN(c5cccc(C(=O)O)n5)CC4(C)C)cc3n2)CC1 [Example I-449] | – | – | – | – | IC50 [3]: 1.9 nM; IC50 [4]: 660 nM; IC50 [5]: > 1010 nM; IC50 [6]: 0.9 nM; % inhibition ([2]; dose 40 mg/kg): 49%; % inhibition ([2]; dose 100 mg/kg): 73%
CC(C)(C)c1cc(-c2ccc(Cl)c(F)c2)nc2cc(C(=O)N3CCC(N)CC3(C)C)oc12 (stereo not shown) [Example I-548] | – | – | – | – | IC50 [3]: 640 nM; IC50 [4]: 1800 nM; IC50 [5]: > 2000 nM; IC50 [6]: 690 nM
CNC1CCN(C(=O)c2cc3nc(-c4ccc(Cl)c(F)c4)cc(C(C)(C)C)c3o2)C(C)(C)C1 (stereo not shown) [Example I-549] | – | – | – | – | IC50 [3]: 1400 nM; IC50 [4]: > 2000 nM; IC50 [5]: > 2000 nM; IC50 [6]: 1100 nM

More lines, main results first:

Clp [1, 7] | T ½ ([1]; non-compartmental analysis) | F [1] | Compound | % inhibition ([2]; dose 20 mg/kg) | further results
3.4 mL/min/kg | 30.7 h | 87% | CC(C)(C)c1cc(-c2ccc(Cl)c(F)c2)nc2cc(C(=O)N3CCN(c4cn[nH]c4)C(=O)C3(C)C)oc12 [Compound I-260] | 0.4% | –
5.2 mL/min/kg | 3.7 h | 58% | CC(C)(C)c1cc(-c2ccc(Cl)c(F)c2)nc2cc(C(=O)N3CCN(c4ccc(C(=O)O)cn4)CC3(C)C)oc12 [Compound I-287] | – | % inhibition ([2]; dose 200 mg/kg): 30%
21.3 mL/min/kg | 0.47 h | 19% | CC(C)(C)c1cc(-c2ccc(Cl)c(F)c2)nc2cc(C(=O)N3CCN(C(=O)CC4(C(=O)O)CCCC4)CC3(C)C)oc12 [Compound I-324] | 71% | –
33 mL/min/kg | 0.5 h | – | CC1(C)CCC(c2cc(C(C)(C)C)c3oc(C(=O)N4CCN(C(=O)CC5(C(=O)O)CCC5)CC4(C)C)cc3n2)CC1 [Compound I-338] | 0% | –
53 mL/min/kg | 0.33 h | 27% | CC(C)[C@H](CC(=O)N1CCN(C(=O)c2cc3nc(-c4ccc(Cl)c(F)c4)cc(C(C)(C)C)c3o2)C(C)(C)C1)C(=O)O [Compound I-343] | 29% | –
10.2 mL/min/kg | 0.99 h | 24% | CC(C)(C)c1cc(-c2ccc(Cl)c(F)c2)nc2cc(C(=O)N3CCN(c4cccc(-c5nnn[nH]5)n4)CC3(C)C)oc12 [Compound I-344] | 43% | –
6.5 mL/min/kg | 5.6 h | 48% | Cc1ccc(C(=O)O)c(N2CCN(C(=O)c3cc4nc(-c5ccc(Cl)c(F)c5)cc(C(C)(C)C)c4o3)C(C)(C)C2)n1 [Compound I-352] | 61% | –
28 mL/min/kg | 0.32 h | 2.7% | CC(C)(CCC(=O)N1CCN(C(=O)c2cc3nc(-c4ccc(Cl)c(F)c4)cc(C(C)(C)C)c3o2)C(C)(C)C1)C(=O)O [Compound I-367] | 68% | –
3.6 mL/min/kg | 23.2 h | 66% | CC(C)(C)c1cc(-c2ccc(Cl)c(F)c2)nc2cc(C(=O)N3CCN(c4ccn[nH]4)C(=O)C3(C)C)oc12 [Compound I-406] | 21% | –
6.5 mL/min/kg | 2.0 h | 70% | Cc1nc(N2CCN(C(=O)c3cc4nc(-c5ccc(Cl)c(F)c5)cc(C(C)(C)C)c4o3)C(C)(C)C2)ccc1C(=O)O [Compound I-411] | – | % inhibition ([2]; dose 8 mg/kg): 36%
– | – | 125% | CC(C)(C)c1cc(-c2ccc(Cl)c(F)c2)nc2cc(C(=O)N3CCN(c4cccc(C(=O)O)n4)CC3(C)C)oc12 [Example I-448, 6-[4-[7-tert-butyl-5-(4-chloro-3-fluoro-phenyl)furo[3,2-b]pyridine-2-carbonyl]-3,3-dimethyl-piperazin-1-yl]pyridine-2-carboxylic acid] | 21% | IC50 [3]: 0.3 nM; IC50 [4]: 1790 nM; IC50 [5]: 2000 nM; IC50 [6]: 0.2 nM; clearance ([1]; plasma, intravenous bolus 0.5 to 1 mg/kg, non-compartmental analysis, read-out: Clp): 9.3 mL/min/kg; half-life ([1]; plasma, non-compartmental analysis, read-out: T ½ (converted)): 5.2 h; % inhibition ([2]; dose 0.8 mg/kg): 11%; % inhibition ([2]; dose 3 mg/kg): 18%; % inhibition ([2]; dose 10 mg/kg): 30%
